The structures appear in SMILES notation.

Data set [1] can be described thus: Ex-vivo IgM-induced Akt phosphorylation in mouse after oral administration. The following applies: male, C57Bl/6, blood. As for the experimental part:
Compounds are dissolved in 0.5% Carboxymethylcellulose containing 0.25% Tween 20 in water and administered orally to each mouse (6-8 weeks old C57B1/6 males from janvier) in a volume of 10 mL/kg. Half an hour before blood collection, heparin at 100 U/kg is injected intraperitonealy to each mouse. At appropriate Tm (maximum exposure) mice are sacrificed and blood collected by intra-cardiac puncture in heparinised tubes.
Blood is pre-incubated at 37° C. for 20 minutes, then an equal volume of Fab′2 Goat anti-Mouse IgM (μspecific, Jackson ImmunoResearch) at 60 μg/mL is added to each tube. B cell activation is terminated after 3 minutes using formaldehyde 4% final and red blood cells are lysed with another 30 minutes Triton X-100 0.1% treatment. Further to several washes with PBS, cells are transferred in a 96 well plate, permeabilized with 50% ice cold Methanol and put on ice for 15 minutes.
Cells were washed PBS before being incubated for one hour with a Rabbit anti Phospho-Akt antibody (4058 from Cell Signaling) in PBS-4% FCS. […]
Cells were analysed on a FACSCalibur instrument (BD Biosciences) equipped with a 633 helium-neon laser (red laser) and 5.10^3 B cells are collected. A threshold was applied on P-Akt histogram of B220^+ IgM+ lymphocytes from the non stimulated tube and the percentage of cells above this threshold is determined for each sample.

Data set [2] has as its system IgM-induced Akt phosphorylation in B cell. The data set can be described thus: IgM-induced Akt phosphorylation in B cell (PBMC, flow cytometry). In kind it is cell-based. To be noted: human PBMC, CD19+ IgM+ B cells, read-out: IC50 μM, inhibition of IgM-induced Akt phosphorylation. Here is the method: Human PBMC were prepared from a Buffy coat (Geneve Hospital) after a Ficoll gradient (Ficoll-Paque™ Plus PHARMACIA ref: 17-1440-03).
Cell concentration was adjusted to 10^6 cells per mL in RPMI (GIBCO Ref: 72400-21) without serum. Before stimulation, 90 μl of PBMC suspension was incubated with 10 μl of diluted compound in a 96 well round bottom plate for 20 minutes at 37° C.
For B cell activation, 30 μl of Fab′2 Goat anti IgM (Jackson Immuno-research) at10 μg/mL was added to each well. After 5 minutes, cell activation was stopped with 4% paraformaldehyde (10 minutes at room temperature).
Fixed PBMC were then treated for 20 minutes with 0.15% Triton, washed twice with PBS and permeabilized with 50% methanol for 15 minutes.
PBMC were washed twice in PBS, resuspended in: PBS-4% FCS and incubated with anti P-Akt ( 1/100 dilution) for one h at room temperature.
After one wash, PBMC were further stained for 30 minutes with a mixture of anti-CD19-PE (BD Biosciences), anti-IgM-FITC (BD Biosciences) and goat anti rabbit IgG-Alexa 647 (Molecular probe).
After washing, PBMC (Peripheral Blood Mononuclear Cells) were analysed on a FACSCalibur instrument (BD Biosciences) equipped with a 633 helium-neon laser, or stored at 4° C. for further analysis. 510^3 B cells events were gathered per sample in the CD19 positive region.
For the analysis, a threshold was applied on P-Akt histogram of CD19+ IgM+ lymphocytes cells from the non stimulated samples and the percentage of cells above this threshold was determined for each sample.
Background: A flow cytometer gives signals particle by particle.

The subject of data set [3] is Human recombinant GST-PI3K. As to the kind of experiment: PI3K induced-lipid phosphorylation, neomycin-SPA scintillation proximity assay. In kind it is biochemical. The following applies: Human recombinant GST-PI3K, SPA.
Data set [4] concerns IgM-induced Akt phosphorylation in B cell in the presence of whole blood. The data set can be described thus: IgM-induced Akt phosphorylation in B cell in the presence of whole blood. In kind it is cell-based. The following applies: Homo sapiens, CD19+ IgM+ cells, read-out: IC50 μM, inhibition of IgM-induced Akt phosphorylation in the presence of whole blood. Here is the method:
100 μl of blood are pre-incubated in falcon tube (352063) for 20 minutes at 37° C.
For B cell activation 100 μl of Fab′2 Goat anti Human IgM (30 ug/mL final) is added to each tube and cells are maintained at 37° C.
After 5 minutes, cell activation is stopped with 130 μl Formaldehyde 10% (4% final) and cells are left 10 minutes at room temperature.
Fixed cells are then treated 30 minutes with Triton 0.1% final (add 1 mL of 0.15% Triton)
After several washes with PBS (red cells lysed progressively during washes, 3-4 washes are necessary), cells are transferred in 96 well plate and permeabilized with 50% ice cold Methanol (resuspend first the cells with 80 μl PBBS and then with 80 μl 100% ice cold Methanol) and put on ice for 15 minutes. Plate can be stored in −20° C. in methanol and surface staining performed another day).
Cells are washed twice with PBS and once with the staining buffer-PBS-4% FCS.
Cells are incubated with anti P-Akt (1/70 dilution) In staining buffer for one h.
After a wash with staining buffer, cells are stained with a mixture of anti CD19-PE (3 ul/well), anti-IGM-FITC (3 ul/well), Goat anti rabbit IgG-Alexa 647 (1/500), goat IgG (1/200) for 30 minutes.
After a wash, cells are resuspended in staining buffer or PBS, kept in fridge or immediately passed on a FACSCalibur instrument (BD Biosciences) equipped with a 633 helium-neon laser (red laser).
P-akt histogram of CD19+IGM+ cells is represented and a threshold is set with the non stimulated sample. The parameter reported for each sample is the % of positive cells above this cursor. A representative example is set out in FIG. 1.

The target in data set [5] is CK2 protein kinase (Homo sapiens (Human), UniProt P68400). The following applies: Fruman et al., 1998; cited from earlier work.
Sequence of CK2 protein kinase (P68400 whole entry): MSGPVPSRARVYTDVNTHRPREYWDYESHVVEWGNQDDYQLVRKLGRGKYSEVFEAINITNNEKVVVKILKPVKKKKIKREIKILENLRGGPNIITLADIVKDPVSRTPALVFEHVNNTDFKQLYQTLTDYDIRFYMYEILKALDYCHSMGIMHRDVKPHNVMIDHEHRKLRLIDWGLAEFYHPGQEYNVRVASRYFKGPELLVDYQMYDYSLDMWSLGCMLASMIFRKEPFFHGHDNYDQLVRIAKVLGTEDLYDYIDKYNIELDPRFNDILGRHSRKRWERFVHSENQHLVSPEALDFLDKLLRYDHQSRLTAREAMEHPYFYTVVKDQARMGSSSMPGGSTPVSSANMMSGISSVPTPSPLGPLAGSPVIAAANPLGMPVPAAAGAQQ
The test system of data set [6] is Class I PI3-kinases. The following applies: Fruman et al., 1998; read-out: IC50 against each of the various Class I PI3-kinases; cited from earlier work.

Turning to `COc1ccc(CN2CCN(C)CC2)c(Nc2nc3ccccc3nc2NS(=O)(=O)c2cccnc2)c1` [Example 81, N-[3-({5-methoxy-2-[(4-methylpiperazin-1-yl)methyl]phenyl}amino)quinoxalin-2-yl]pyridine-3-sulfonamide], the time to peak (Tmax) (as a rule, the time at which the peak concentration occurs) in data set [1] was 15 min. The IC50 – broadly, the concentration needed to halve the response being measured – in data set [2] is 0.03 µM; in data set [3], 0.049 µM; in data set [4], 1.9 µM.

With `O=c1cc(N2CCOCC2)oc2c(-c3ccccc3)cccc12` [LY294002], in data set [5], the IC50 was 5000 to 10000 µM.

For the compound `COC[C@H]1OC(=O)c2coc3c2[C@@]1(C)C1=C(C3=O)[C@@H]2CCC(=O)[C@@]2(C)C[C@H]1OC(C)=O` [Wortmannin], the IC50 in data set [6] is 0.001 to 0.01 µM.

(Values after patent US8614215B2, “Quinoxaline inhibitors of phosphoinositide-3-kinases (PI3Ks)” (Merck Serono SA, priority 2007, dated 2013).)
